Holding throughout (type): functional, cell-based
The target of data set [1] is T1, Oatp2 (Solute carrier organic anion transporter family member 1A4) (Rattus norvegicus, UniProt O35913).
T1 sequence (O35913 whole entry): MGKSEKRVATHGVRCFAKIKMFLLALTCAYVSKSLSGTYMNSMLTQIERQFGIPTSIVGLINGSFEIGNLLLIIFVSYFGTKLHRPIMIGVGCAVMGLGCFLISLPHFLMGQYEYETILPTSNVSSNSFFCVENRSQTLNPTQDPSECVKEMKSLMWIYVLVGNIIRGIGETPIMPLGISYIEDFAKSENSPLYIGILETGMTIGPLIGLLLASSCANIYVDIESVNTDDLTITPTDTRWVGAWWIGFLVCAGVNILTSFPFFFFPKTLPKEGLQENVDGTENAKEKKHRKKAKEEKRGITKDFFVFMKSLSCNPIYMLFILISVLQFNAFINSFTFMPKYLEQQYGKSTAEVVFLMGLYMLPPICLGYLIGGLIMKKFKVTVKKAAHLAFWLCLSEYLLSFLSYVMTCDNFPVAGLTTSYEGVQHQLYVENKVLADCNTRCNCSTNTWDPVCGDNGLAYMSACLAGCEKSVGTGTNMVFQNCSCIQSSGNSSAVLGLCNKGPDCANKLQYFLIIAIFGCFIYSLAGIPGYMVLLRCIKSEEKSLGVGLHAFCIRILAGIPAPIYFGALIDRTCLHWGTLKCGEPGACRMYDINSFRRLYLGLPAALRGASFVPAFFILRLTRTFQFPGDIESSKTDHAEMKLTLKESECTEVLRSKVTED
Description: TP_TRANSPORTER: inhibition of Digoxin uptake (Digoxin: 0.05 uM, Tolbutamide: 1000 uM) in Oatp2-expressing LLC-PK1 cells. The arrangement: scale not given: the % may be the effect or the level left. As to conditions: pig, probe Digoxin, read-out: Activity.

For data set [2], the target named is T2, Oatp1 (Solute carrier organic anion transporter family member 1A1) (Rattus norvegicus, UniProt P46720).
T2 sequence (P46720 whole entry): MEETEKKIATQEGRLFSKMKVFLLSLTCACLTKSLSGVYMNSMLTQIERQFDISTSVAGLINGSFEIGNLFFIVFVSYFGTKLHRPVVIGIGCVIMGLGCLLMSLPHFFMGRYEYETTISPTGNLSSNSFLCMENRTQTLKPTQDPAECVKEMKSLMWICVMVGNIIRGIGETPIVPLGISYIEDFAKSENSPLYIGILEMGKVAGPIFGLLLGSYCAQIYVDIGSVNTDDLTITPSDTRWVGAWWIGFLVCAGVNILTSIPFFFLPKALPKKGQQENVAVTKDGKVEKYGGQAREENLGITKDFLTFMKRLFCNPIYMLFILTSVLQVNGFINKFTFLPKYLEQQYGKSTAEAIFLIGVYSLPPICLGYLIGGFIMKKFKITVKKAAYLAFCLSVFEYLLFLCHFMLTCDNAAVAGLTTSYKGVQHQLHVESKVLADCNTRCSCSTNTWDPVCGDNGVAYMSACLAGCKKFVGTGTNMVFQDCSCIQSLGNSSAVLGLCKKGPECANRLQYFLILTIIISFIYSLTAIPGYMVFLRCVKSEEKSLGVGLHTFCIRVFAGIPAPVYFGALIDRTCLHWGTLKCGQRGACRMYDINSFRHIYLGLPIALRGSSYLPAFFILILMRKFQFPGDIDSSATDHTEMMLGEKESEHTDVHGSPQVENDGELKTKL
Description: TP_TRANSPORTER: inhibition of E217betaG uptake (E217betaG: 0.1 uM, Tolbutamide: 1000 uM) in Oatp1-expressing LLC-PK1 cells. On the set-up: scale not given: the % may be the effect or the level left. The note with it: pig, probe E217betaG, read-out: Activity.

For data set [3], the target named is T3, Solute carrier organic anion transporter family member 1A4 (Rattus norvegicus, UniProt O35913).
T3 sequence (O35913 whole entry): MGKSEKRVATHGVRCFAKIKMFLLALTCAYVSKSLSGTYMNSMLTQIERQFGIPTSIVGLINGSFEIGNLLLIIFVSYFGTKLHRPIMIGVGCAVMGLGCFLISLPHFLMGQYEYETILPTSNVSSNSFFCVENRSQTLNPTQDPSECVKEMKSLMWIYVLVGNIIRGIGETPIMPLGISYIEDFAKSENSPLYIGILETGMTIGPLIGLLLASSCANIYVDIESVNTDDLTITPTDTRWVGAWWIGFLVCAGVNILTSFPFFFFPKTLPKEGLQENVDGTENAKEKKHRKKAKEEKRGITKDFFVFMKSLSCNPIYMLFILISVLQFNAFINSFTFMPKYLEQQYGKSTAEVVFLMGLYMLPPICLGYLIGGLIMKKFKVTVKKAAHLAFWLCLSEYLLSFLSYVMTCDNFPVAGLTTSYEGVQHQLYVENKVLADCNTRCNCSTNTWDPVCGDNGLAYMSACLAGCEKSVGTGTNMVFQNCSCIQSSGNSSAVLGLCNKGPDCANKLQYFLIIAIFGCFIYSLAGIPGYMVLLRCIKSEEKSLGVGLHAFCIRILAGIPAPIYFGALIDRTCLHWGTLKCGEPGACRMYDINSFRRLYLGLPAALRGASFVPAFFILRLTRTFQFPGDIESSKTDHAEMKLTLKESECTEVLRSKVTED
Description: TP_TRANSPORTER: inhibition of Digoxin uptake in Oatp2-expressing LLC-PK1 cells.

Data set [4] deals with T1, Oatp2 (Solute carrier organic anion transporter family member 1A4). Nature of the data set: TP_TRANSPORTER: inhibition of Digoxin uptake (Digoxin: 0.05 uM, Glibenclamide: 1000 uM) in Oatp2-expressing LLC-PK1 cells. On the set-up: scale not given: the % may be the effect or the level left. The note with it: pig, probe Digoxin, read-out: Activity.
Data set [5] deals with T2, Oatp1 (Solute carrier organic anion transporter family member 1A1). Nature of the data set: TP_TRANSPORTER: inhibition of E217betaG uptake (E217betaG: 0.1 uM, Glibenclamide: 1000 uM) in Oatp1-expressing LLC-PK1 cells. The arrangement: scale not given: the % may be the effect or the level left. As to conditions: pig, probe E217betaG, read-out: Activity.
In data set [6] the target is T1, Oatp2 (Solute carrier organic anion transporter family member 1A4). Description: TP_TRANSPORTER: inhibition of Digoxin uptake (Digoxin: 0.05 uM, Ketoprofen: 1000 uM) in Oatp2-expressing LLC-PK1 cells. The note with it: pig, probe Digoxin, read-out: Activity. The arrangement: scale not given: the % may be the effect or the level left.
Data set [7] addresses T2, Oatp1 (Solute carrier organic anion transporter family member 1A1). Nature of the data set: TP_TRANSPORTER: inhibition of E217betaG uptake (E217betaG: 0.1 uM, Ketoprofen: 1000 uM) in Oatp1-expressing LLC-PK1 cells. The arrangement: scale not given: the % may be the effect or the level left. The note with it: pig, probe E217betaG, read-out: Activity.
Data set [8] addresses T1, Oatp2 (Solute carrier organic anion transporter family member 1A4). Description: TP_TRANSPORTER: inhibition of Digoxin uptake (Digoxin: 0.05 uM, Corticosterone: 100 uM) in Oatp2-expressing LLC-PK1 cells. As to conditions: pig, probe Digoxin, read-out: Activity. On the set-up: scale not given: the % may be the effect or the level left.
Substrate in data set [9]: C[C@H]1O[C@@H](O[C@H]2[C@@H](O)C[C@H](O[C@H]3[C@@H](O)C[C@H](O[C@H]4CC[C@@]5(C)[C@H](CC[C@@H]6[C@@H]5C[C@@H](O)[C@]5(C)[C@@H](C7=CC(=O)OC7)CC[C@]65O)C4)O[C@@H]3C)O[C@@H]2C)C[C@H](O)[C@@H]1O
Nature of the data set: TP_TRANSPORTER: uptake in Oatp2-expressing LLC-PK1 cells.

Substrate in data set [10]: C[C@]12CC[C@@H]3c4ccc(O)cc4CC[C@H]3[C@@H]1CC[C@@H]2O[C@@H]1O[C@H](C(=O)O)[C@@H](O)[C@H](O)[C@H]1O
Description: TP_TRANSPORTER: uptake in Oatp1-expressing LLC-PK1 cells.

The values below come from ChEMBL document CHEMBL2073782, “Comparative inhibitory effects of different compounds on rat oatpl (slc21a1)- and Oatp2 (Slc21a5)-mediated transport” (Pharm Res, 2002).

As a reminder, the Ki is a measure of affinity in units of concentration, obtained from inhibition or displacement. What is called Km is the substrate concentration at which the rate is half of its maximum.

Consider `CCCCNC(=O)NS(=O)(=O)c1ccc(C)cc1` [TOLBUTAMIDE], for which the values for the activity at 1000 µM in data set [1] and in [2] were 47.3% and 32.9%, respectively.
`C=C[C@H]1C[N@@]2CC[C@H]1C[C@H]2[C@H](O)c1ccnc2ccc(OC)cc12` [QUININE]: affinity in [3] was put at a Ki of 3.81 µM.
For the molecule `COc1ccc(Cl)cc1C(=O)NCCc1ccc(S(=O)(=O)NC(=O)NC2CCCCC2)cc1` [GLYBURIDE], the activity at 1000 µM amounted to 1.61% in [4] and 2.33% in data set [5].
On to `CC(C(=O)O)c1cccc(C(=O)c2ccccc2)c1` (stereo not given) [KETOPROFEN], for which the activity at 1000 µM worked out at 30.2% in data set [6] and 6.89% in [7].
For the molecule `C[C@]12C[C@H](O)[C@H]3[C@@H](CCC4=CC(=O)CC[C@@]43C)[C@@H]1CC[C@@H]2C(=O)CO` [CORTICOSTERONE], in [8], the activity at 100 µM came to 32.9%.

B1: Solute carrier organic anion transporter family member 1A4 (Rattus norvegicus) (protein)
chain: MGKSEKRVATHGVRCFAKIKMFLLALTCAYVSKSLSGTYMNSMLTQIERQFGIPTSIVGLINGSFEIGNLLLIIFVSYFGTKLHRPIMIGVGCAVMGLGCFLISLPHFLMGQYEYETILPTSNVSSNSFFCVENRSQTLNPTQDPSECVKEMKSLMWIYVLVGNIIRGIGETPIMPLGISYIEDFAKSENSPLYIGILETGMTIGPLIGLLLASSCANIYVDIESVNTDDLTITPTDTRWVGAWWIGFLVCAGVNILTSFPFFFFPKTLPKEGLQENVDGTENAKEKKHRKKAKEEKRGITKDFFVFMKSLSCNPIYMLFILISVLQFNAFINSFTFMPKYLEQQYGKSTAEVVFLMGLYMLPPICLGYLIGGLIMKKFKVTVKKAAHLAFWLCLSEYLLSFLSYVMTCDNFPVAGLTTSYEGVQHQLYVENKVLADCNTRCNCSTNTWDPVCGDNGLAYMSACLAGCEKSVGTGTNMVFQNCSCIQSSGNSSAVLGLCNKGPDCANKLQYFLIIAIFGCFIYSLAGIPGYMVLLRCIKSEEKSLGVGLHAFCIRILAGIPAPIYFGALIDRTCLHWGTLKCGEPGACRMYDINSFRRLYLGLPAALRGASFVPAFFILRLTRTFQFPGDIESSKTDHAEMKLTLKESECTEVLRSKVTED
As for B1, in [9], the Michaelis-Menten constant (Km) worked out at 0.279 µM.

B2: Solute carrier organic anion transporter family member 1A1 (Rattus norvegicus) (protein)
chain: MEETEKKIATQEGRLFSKMKVFLLSLTCACLTKSLSGVYMNSMLTQIERQFDISTSVAGLINGSFEIGNLFFIVFVSYFGTKLHRPVVIGIGCVIMGLGCLLMSLPHFFMGRYEYETTISPTGNLSSNSFLCMENRTQTLKPTQDPAECVKEMKSLMWICVMVGNIIRGIGETPIVPLGISYIEDFAKSENSPLYIGILEMGKVAGPIFGLLLGSYCAQIYVDIGSVNTDDLTITPSDTRWVGAWWIGFLVCAGVNILTSIPFFFLPKALPKKGQQENVAVTKDGKVEKYGGQAREENLGITKDFLTFMKRLFCNPIYMLFILTSVLQVNGFINKFTFLPKYLEQQYGKSTAEAIFLIGVYSLPPICLGYLIGGFIMKKFKITVKKAAYLAFCLSVFEYLLFLCHFMLTCDNAAVAGLTTSYKGVQHQLHVESKVLADCNTRCSCSTNTWDPVCGDNGVAYMSACLAGCKKFVGTGTNMVFQDCSCIQSLGNSSAVLGLCKKGPECANRLQYFLILTIIISFIYSLTAIPGYMVFLRCVKSEEKSLGVGLHTFCIRVFAGIPAPVYFGALIDRTCLHWGTLKCGQRGACRMYDINSFRHIYLGLPIALRGSSYLPAFFILILMRKFQFPGDIDSSATDHTEMMLGEKESEHTDVHGSPQVENDGELKTKL
As for B2, the Km in data set [10] came to 11.2 µM.
